Source: patent US4906623A, “3-Imidazolium cephalosporin derivatives” (Otsuka Kagaku Kabushiki Kaisha, priority 1985, dated 1990)
Converted amounts (≈) assume the structure as drawn. Like-named read-outs stand apart in the source and are kept apart here.

Key:
Assay in all cases: in vitro anti-bacterial activity, two-fold agar plate dilution method
Format in all cases: cell-based
[1] = test system: Proteus vulgaris
Description: (§1) The agent for preventing and treating bacterial infections was tested for in vitro anti-bacterial activity by the following two-fold agar plate dilution method. Each test strain was incubated for 20 hours in a bouillon for measuring sensitivity to obtain a test culture (containing about […]). Portions of sensitivity measuring agar medium containing varying concentrations of the antibacterial agent were each innoculated with a 0.005 ml portion of the culture, followed by incubation at 37° C. for 20 hours. The minimum growth inhibitory concentration (MIC) in μg/ml was then determined.
(§2) MIC=minimum inhibitory concentration

[2] = test system: Staphylococcus aureus 209P; conditions: Staphylococcus aureus 209P, agar dilution, 37° C., 20 hours
Description: as §1, §2

[3] = test system: Klebsiella pneumoniae
Description: as §1, §2

[4] = test system: Escherichia coli CSH(RE45); conditions: 37° C., 20 hours
Description: as §1, §2

[5] = test system: Pseudomonas aeruginosa
Description: as §1, §2

[6] = test system: Escherichia coli NIHJ-JC2
Description: as §1, §2

[7] = test system: Proteus mirabilis
Description: as §1, §2

[8] = test system: Serratia marcescens
Description: as §1, §2

[9] = test system: Pseudomonas cepacia; conditions: 37° C., 20 hours
Description: as §1, §2

[10] = agar dilution, 37° C., 20 hours, read-out: MIC
[11] = Burkholderia cepacia, read-out: MIC
[12] = agar dilution, 37° C., 20 hours
[13] = NIHJJC2, Escherichia coli NIHJ-JC2, agar dilution, 37° C., 20 hours, read-out: MIC

| Compound | MIC [1, 10] [µg/mL] | MIC ([2]; read-out: MIC) [µg/mL] | MIC ([3]; 20 h) [µg/mL] | MIC ([4]; read-out: MIC) [µg/mL] | MIC [7, 10] [µg/mL] | MIC ([8]; 20 h) [µg/mL] | MIC [9, 11] [µg/mL] | MIC [5, 10] [µg/mL] | MIC [6, 13] [µg/mL] | MIC [8, 10] [µg/mL] | MIC ([1]; 20 h) [µg/mL] | MIC ([7]; 20 h) [µg/mL] | other results |
| --- | --- | --- | --- | --- | --- | --- | --- | --- | --- | --- | --- | --- | --- |
| C#CCn1cc[n+](CC2=C(C(=O)[O-])N3C(=O)C(NC(=O)/C(=N\OC(C)(C)C(=O)O)c4csc(N)n4)C3SC2)c1 (stereo not drawn) [K, 7-{2-(2-aminothiazole-4-yl)-2-[potassium(2,2-dimethylacetate)oxyimino]acetamide}-3-[3-(2-propynyl)-1-imidazoliomethyl]-3-cephem-4-carboxylate] | 0.39 | 12.5 | 0.78 | 0.39 | 0.39 | 0.78 | 0.39 | – | – | – | – | – | MIC ([5]; 20 h): 3.13 µg/mL; MIC ([6]; Escherichia coli, NIHJJC2, 20 h): 0.2 µg/mL |
| 7-{2-(2-aminothiazole-4-yl)-2-[potassium(2,2-dimethylacetate)oxyimino]acetamide}-3-(3-acetophenyl-1-imidazoliomethyl)-3-cephem-4-carboxylate | – | – | – | – | – | – | – | – | – | – | – | – | MIC [1, 12]: 0.2 µg/mL; MIC [2]: 6.25 µg/mL; MIC [3, 12]: 1.56 µg/mL; MIC [4]: 0.2 µg/mL; MIC [5, 12]: 12.5 µg/mL; MIC ([6]; Escherichia coli NIHJ-JC2, agar dilution, 37° C., 20 hours): 0.39 µg/mL; MIC [7, 12]: 0.2 µg/mL; MIC [8, 12]: 1.56 µg/mL; MIC [9]: 25 µg/mL |
| C=CCn1cc[n+](CC2=C(C(=O)[O-])N3C(=O)C(NC(=O)/C(=N\OC(C)(C)C(=O)O)c4csc(N)n4)C3SC2)c1 (stereo not drawn) [H, 7-{2-(2-aminothiazole-4-yl)-2-[potassium(2,2-dimethylacetate)oxyimino]acetamide}-3-[3-(2-propenyl)-1-imidazoliomethyl]-3-cephem-4-carboxylate] | 0.1 | 5 | – | 0.1 | 0.2 | – | 6.25 | 3.12 | 0.2 | 0.78 | – | – | MIC [3, 10]: 0.78 µg/mL |
| CC(C)(O/N=C(\C(=O)NC1C(=O)N2C(C(=O)[O-])=C(C[n+]3ccn(C4CCCCC4)c3)CSC12)c1csc(N)n1)C(=O)O (stereo not drawn) [N, 7-{2-(2-aminothiazole-4-yl)-2-[potassium(2,2-dimethylacetate)oxyimino]acetamide}-3-(3-cyclohexyl-1-imidazoliomethyl)-3-cephem-4-carboxylate] | 0.2 | 6.25 | 0.78 | 0.1 | 0.2 | – | 25 | 6.25 | 0.2 | 1.56 | – | – | – |
| CC(C)=CCn1c[n+](CC2=C(C(=O)[O-])N3C(=O)C(NC(=O)/C(=N\OC(C)(C)C(=O)O)c4csc(N)n4)C3SC2)c2ccccc21 (stereo not drawn) [Y, 7-{2-(2-aminothiazole-4-yl)-2-[potassium(2,2-dimethylacetate)oxyimino]acetamide}-3-[benz-3-N-(3-methyl-2-butenyl)-1-imidazoliomethyl]-3-cephem-4-carboxylate] | – | 6.25 | – | 1.56 | 6.25 | – | > 100 | 25 | 6.25 | 12.5 | 3.13 | – | MIC [3, 10]: 12.5 µg/mL |
| C=CCO/N=C(\C(=O)NC1C(=O)N2C(C(=O)[O-])=C(C[n+]3ccn(CC=C)c3)CSC12)c1csc(N)n1 (stereo not drawn) [Compound A, 7-[2-(2-aminothiazole-4-yl)-2-(2-propenyloxyimino)acetamide]-3-[3-(2-propenyl)-1-imidazoliomethyl]-3-cephem-4-carboxylate] | – | 0.78 (≈ 1.47 µM) | 1.56 (≈ 2.95 µM) | 0.39 (≈ 0.736 µM) | – | 0.78 (≈ 1.47 µM) | 6.25 (≈ 11.8 µM) | 6.25 (≈ 11.8 µM) | 0.78 (≈ 1.47 µM) | – | 1.56 (≈ 2.95 µM) | 3.13 (≈ 5.91 µM) | – |
| C#CCn1cc[n+](CC2=C(C(=O)[O-])N3C(=O)C(NC(=O)/C(=N\OC)c4csc(N)n4)C3SC2)c1 (stereo not drawn) [Compound G, 7-[2-(2-aminothiazole-4-yl)-2-methoxyiminoacetamide]-3-[3-(2-propynyl)-1-imidazoliomethyl]-3-cephem-4-carboxylate] | – | 0.78 (≈ 1.56 µM) | 0.1 (≈ 0.199 µM) | 0.2 (≈ 0.399 µM) | – | 1.56 (≈ 3.11 µM) | 25 (≈ 49.8 µM) | 6.25 (≈ 12.5 µM) | 0.05 (≈ 0.0997 µM) | – | 0.2 (≈ 0.399 µM) | 0.2 (≈ 0.399 µM) | – |
| C=CCO/N=C(\C(=O)NC1C(=O)N2C(C(=O)[O-])=C(C[n+]3ccn(C)c3)CSC12)c1csc(N)n1 (stereo not drawn) [E, 7-[2-(2-aminothiazole-4-yl)-2-(2-propenyloxyimino)acetamide]-3-(3-methyl-1-imidazoliomethyl)-3-cephem-4-carboxylate] | 0.39 (≈ 0.774 µM) | 0.78 (≈ 1.55 µM) | – | 0.05 (≈ 0.0993 µM) | 0.78 (≈ 1.55 µM) | – | > 50 | 12.5 (≈ 24.8 µM) | 0.2 (≈ 0.397 µM) | 1.56 (≈ 3.1 µM) | – | – | MIC [3, 10]: 0.02 µg/mL (≈ 0.0397 µM) |
| C#CCn1cc[n+](CC2=C(C(=O)[O-])N3C(=O)C(NC(=O)/C(=N\OCC=C)c4csc(N)n4)C3SC2)c1 (stereo not drawn) [D, 7-[2-(2-aminothiazole-4-yl)-2-(2-propenyloxyimino)acetamide]-3-[3-(2-propynyl)-1-imidazoliomethyl]-3-cephem-4-carboxylate] | 1.56 (≈ 2.96 µM) | 0.78 (≈ 1.48 µM) | 0.78 (≈ 1.48 µM) | 0.78 (≈ 1.48 µM) | 1.56 (≈ 2.96 µM) | – | 12.5 (≈ 23.7 µM) | 12.5 (≈ 23.7 µM) | 0.78 (≈ 1.48 µM) | 3.13 (≈ 5.93 µM) | – | – | – |
| C=CCCn1c[n+](CC2=C(C(=O)[O-])N3C(=O)C(NC(=O)/C(=N\OC(C)(C)C(=O)O)c4csc(N)n4)C3SC2)c2ccccc21 (stereo not drawn) [Compound S, 7-{2-(2-aminothiazole-4-yl)-2-[potassium(2,2-dimethylacetate)oxyimino]acetamide}-3-[benz-3-N-(3-butenyl)-1-imidazoliomethyl]-3-cephem-4-carboxylate] | – | 0.78 | 3.13 | 0.39 | – | 3.13 | 25 | 6.25 | 0.78 | – | 0.78 | 3.13 | – |
| C=CCn1cc[n+](CC2=C(C(=O)[O-])N3C(=O)C(NC(=O)/C(=N\OC)c4csc(N)n4)C3SC2)c1 (stereo not drawn) [F, 7-[2-(2-aminothiazole-4-yl)-2-methoxyiminoacetamide]-3-[3-(2-propenyl)-1-imidazoliomethyl]-3-cephem-4-carboxylate] | – | 6.25 (≈ 12.4 µM) | 0.1 (≈ 0.199 µM) | 0.2 (≈ 0.397 µM) | – | – | 50 (≈ 99.3 µM) | 25 (≈ 49.6 µM) | 0.1 (≈ 0.199 µM) | 0.78 (≈ 1.55 µM) | 0.39 (≈ 0.774 µM) | 0.39 (≈ 0.774 µM) | – |
| CCCCn1c[n+](CC2=C(C(=O)[O-])N3C(=O)C(NC(=O)/C(=N\OC(C)(C)C(=O)O)c4csc(N)n4)C3SC2)c2ccccc21 (stereo not drawn) [T, 7-{2-(2-aminothiazole-4-yl)-2-[potassium(2,2-dimethylacetate)oxyimino]acetamide}-3-(benz-3-N-butyl-1-imidazoliomethyl)-3-cephem-4-carboxylate] | – | 3.13 | 3.13 | 0.39 | – | 1.56 | 25 | 6.25 | 1.56 | – | 0.78 | 3.13 | – |
| C#CCn1c[n+](CC2=C(C(=O)[O-])N3C(=O)C(NC(=O)/C(=N\OC(C)(C)C(=O)O)c4csc(N)n4)C3SC2)c2ccccc21 (stereo not drawn) [Q, 7-{2-(2-aminothiazole-4-yl)-2-[potassium(2,2-dimethylacetate)oxyimino]acetamide}-3-[benz-3-N-(2-propynyl)-1-imidazoliomethyl]-3-cephem-4-carboxylate] | – | 3.13 | 0.78 | 0.2 | – | 0.78 | 12.5 | – | 0.2 | – | 0.1 | 0.39 | MIC ([5]; 20 h): 3.13 µg/mL |
